Usually GI50 stands for the concentration at which growth is held to half of that of the control.

SMILES strings stand for the structures. “And” between values parts separate entries of the source, which are not always exact repeats. Identical values can stand only once. Like-named read-outs stand apart in the source and are kept apart here.

What all share (experiment): MTT assay for 7-day toxicity assay
Common to all, as to format: cell-based
(In general: Formazan colour is commonly taken as a measure of viable cells.)

Test [1] has as its system Melanoma SKMEL-28 (MMR proficient). Particulars: Homo sapiens, SK-MEL-28, 168 h, Melanoma SKMEL-28 (MMR proficient); 7-day MTT; single determinations; read-out: GI50. Here is the method:
(§1) The cell culture techniques were carried out in a Class II microbiological safety cabinet which was swabbed with 70% IMS in distilled water before each use. Glioma cells were routinely cultured in Costar tissue culture flasks in RPMI 1640 liquid medium (containing 0.3 g/L L-glutamine and 2 g/L sodium bicarbonate) supplemented with 10% heat inactivated FBS (55-59° C.) for 1 hour to denature complement proteins which would otherwise evoke a cellular immune response resulting in cell lysis, 1% non-essential amino acids, 50 μg/mL gentamicin and 400 μg/mL G418 (vector selected reagent). Colorectal and melanoma cells were maintained in RPMI 1640 supplemented with 10% FBS. MRC-5 cells were cultured in EMEM. Cells were grown in a humidified incubator containing 5% CO2 at 37° C. Cells were sub-cultured when growth exceeded approximately 80% confluence, normally twice weekly. The medium was aspirated from the flask and approximately 0.8 mL trypsin-EDTA 1× solution added. The cells were re-incubated at 37° C. until they visibly detached from the flask. The cell suspension was then re-suspended in 5 mL medium and 0.5-1 mL of the cell suspension was transferred to a new flask (25 cm^2) with 7 mL culture medium. The cells were further incubated at 37° C. incubator. Cells were disposed after passage nearly 30 times in order to minimize phenotypic drift. New batches of cells were taken from liquid nitrogen storage by thawing rapidly (37° C. water bath) and re-suspension in a 25 cm^2 flask with 10 mL of culture medium. Two passages were allowed to resume normal growth. For long-term maintenance, viable cells at 60-80% confluence were detached by minimum amount of trypsin/EDTA and re-suspended in sterile filtered freezing medium (95% FBS, 5% DMSO), transferred to sterile cryogenic vials, and frozen overnight at −20° C. followed by −80° C. for 1-2 days and stored in liquid nitrogen for long term storage.
(§2) Most test compounds, including temozolomide, were prepared as stock solution (100 mM) in DMSO and stored at −20° C. for not more than 6 months.
(§3) This assay was first described in Mosmann, T., 1983, “Rapid colorimetric assay for cellular growth and survival: Application to proliferation and cytotoxicity assays”, Journal of Immunological Methods, Vol. 65, Nos. 1-2, pp. 55-63.
(§4) Glioma cell lines, SNB19 and U373, both MGMT transfected (i.e., SNB19M and U373M) and vector controls (i.e., SNB19V and U373V); colorectal carcinoma cell lines, HCT116, HT29, and DLD1; melanoma cell line, SKMEL-28; breast cell line, MCF-7; and normal human fetal lung fibroblast cell line, MRC-5; were harvested at 60-80% confluence—during the logarithmic phase of growth.
(§5) Following harvesting, cells in suspension were gently syringed through a 23 gauge needle to obtain a near-single cell suspension. The desired cell seeding densities were used and added into 96-well plates in 180 μL culture medium if only one test compound was to be added, or 160 μL if two test compounds were to be added in combination, which were allowed to attach at 37° C. (5% CO2) overnight. For the 7 day assay, the cell seeding density for different cell lines was as follows: SNB19V, SNB19M: 650 cells/well; U373V, U373M: 650 cells/well; SNB19VR, U373VR: 650 cells/well; HCT116, DLD-1, SKMEL-28, MRC-5, MCF-7: 400 cells/well.
(§6) The two peripheral lanes were used as blank wells (cell free) and filled with 200 μL of medium in order to minimise medium evaporation from the plate. A separate time zero (T0) plate was set up alongside other plates. Serial dilutions in tissue culture medium of a 100 mM stock of test compound in DMSO were prepared immediately before each assay to ten times the final concentrations required, and then 20 μL was added to each well (200 μL total media per well) to achieve final concentrations of 0.5 μM, 1 μM, 5 μM, 10 μM, 50 μM, 100 μM, 500 μM, and 1000 μM. A minimum of four wells received the same test compound concentration. […]

The test system of test [2] is Colon HT29 (MMR proficient). Particulars: Homo sapiens, HT-29, 168 h, Colon HT29 (MMR proficient); 7-day MTT; single determinations; read-out: GI50. The method, then: as §1, §2, §3, §4, §5, §6
Test [3] has as its system Colon HCT116 (MMR mutated). Particulars: Colon HCT116 (MMR mutated), 7-day MTT, single determinations, read-out: GI50. Here is the method: as §1, §2, §3, §4, §5, §6
In another test the test system is Glioma SNB19V (MGMT−). Particulars: Glioma SNB19V (MGMT−), 7-day MTT, single determinations. Here is the method:
as §1, with “Glioma cells were routinely cultured in Costar tissue culture flasks in RPMI 1640 liquid medium (containing 0.3 g/L L-glutamine and 2 g/L sodium bicarbonate) supplemented with 10% heat inactivated FBS (55-59° C.) for 1 hour to denature complement proteins which would otherwise evoke a cellular immune response resulting in cell lysis, 1% non-essential amino acids, 50 μg/mL gentamicin and 400 μg/mL G418 (vector selected reagent). Colorectal and melanoma cells were maintained in RPMI 1640 supplemented with 10% FBS.” left out
as §2, §4, §5
(§7) The two peripheral lanes were used as blank wells (cell free) and filled with 200 μL of medium in order to minimise medium evaporation from the plate. A separate time zero (T0) plate was set up alongside other plates. Serial dilutions in tissue culture medium of a 100 mM stock of test compound in DMSO were prepared immediately before each assay to ten times the final concentrations required, and then 20 μL was added to each well (200 μL total media per well) to achieve final concentrations of 0.5 μM, 1 μM, 5 μM, 10 μM, 50 μM, 100 μM, 500 μM, and 1000 μM. A minimum of four wells received the same test compound concentration. To control wells, including those in the T0 plate, 20 μL of medium was added. […] A separate plate treated in the same way, but free of test compound, was used as a measure of cell viability at the time of drug addition (day 0).
(§8) After incubation at 37° C., 5% CO2 for 7 days (or immediately for the day 0 plate), cell viability was quantified using the MTT assay. 50 μL of sterile filtered MIT (3-(4,5-dimethylthiazol-2-yl)-2,5-diphenyltetrazolium bromide) (2 mg/mL in phosphate buffered saline) were added to each well (final concentration 0.4 mg/mL) and the plates were re-incubated for 4 hours to allow metabolic conversion of MTT by dehydrogenases in viable cells to insoluble formazan crystals.
(§9) The intensity of absorbance is directly proportional to cell viability.

The test system of another test is Glioma U373V (MGMT low). Particulars: Glioma U373V (MGMT low), 7-day MTT, single determinations. The method, then: as §1, with “Glioma cells were routinely cultured in Costar tissue culture flasks in RPMI 1640 liquid medium (containing 0.3 g/L L-glutamine and 2 g/L sodium bicarbonate) supplemented with 10% heat inactivated FBS (55-59° C.) for 1 hour to denature complement proteins which would otherwise evoke a cellular immune response resulting in cell lysis, 1% non-essential amino acids, 50 μg/mL gentamicin and 400 μg/mL G418 (vector selected reagent). Colorectal and melanoma cells were maintained in RPMI 1640 supplemented with 10% FBS.” left out
as §2, §4, §5, §7, §8, §9

The subject of a further test is Glioma U373M (MGMT+). The note with it: Glioma U373M (MGMT+), 7-day MTT, single determinations. The method, then: as §1, with “Glioma cells were routinely cultured in Costar tissue culture flasks in RPMI 1640 liquid medium (containing 0.3 g/L L-glutamine and 2 g/L sodium bicarbonate) supplemented with 10% heat inactivated FBS (55-59° C.) for 1 hour to denature complement proteins which would otherwise evoke a cellular immune response resulting in cell lysis, 1% non-essential amino acids, 50 μg/mL gentamicin and 400 μg/mL G418 (vector selected reagent). Colorectal and melanoma cells were maintained in RPMI 1640 supplemented with 10% FBS.” left out
as §2, §4, §5, §7, §8, §9

The test system of the next test is Glioma SNB19M (MGMT+). The note with it: Glioma SNB19M (MGMT+), 7-day MTT, single determinations. Here is the method:
as §1, with “Glioma cells were routinely cultured in Costar tissue culture flasks in RPMI 1640 liquid medium (containing 0.3 g/L L-glutamine and 2 g/L sodium bicarbonate) supplemented with 10% heat inactivated FBS (55-59° C.) for 1 hour to denature complement proteins which would otherwise evoke a cellular immune response resulting in cell lysis, 1% non-essential amino acids, 50 μg/mL gentamicin and 400 μg/mL G418 (vector selected reagent). Colorectal and melanoma cells were maintained in RPMI 1640 supplemented with 10% FBS.” left out
as §2, §4, §5, §7, §8, §9

Test [4] concerns Normal Human Fetal Lung Fibroblast MRC-5. The note with it: Normal Human Fetal Lung Fibroblast MRC-5, 7-day MTT, single determinations, read-out: GI50. Here is the method: as §1, §2, §3, §4, §5, §6
In a further test the test system is Colon DLD1. The note with it: Homo sapiens, DLD-1, 168 h; Colon DLD1; 7-day MTT; single determinations; read-out: GI50. Here is the method:
as §1, §2, §3, §4, §5, §6

The subject of test [5] is Glioma SNB19VR (MGMT−) (TMZ resistant). The note with it: Glioma SNB19VR (MGMT−, TMZ resistant), 7-day MTT, single determinations, read-out: GI50. Here is the method: as §1, §2, §3, §4, §5, §6

With `C[C@@H](c1ccccc1)n1nnc2c(C(N)=O)ncn2c1=O` [BB-002, (S)-3-(−1-Phenylethyl)-8-carbamoylimidazotetrazin-4-one], the GI50 in [1] was determined as 222 µM; in [2], 243 µM; in [3] (Homo sapiens, HCT-116, 168 h), 206 µM; in the test with Glioma SNB19V (MGMT−) (168 h), 35.3 µM; in the test with Glioma SNB19V (MGMT−), 34.1 µM; in the test on Glioma U373V (MGMT low) (168 h), 61.6 µM. In addition, the GI50 in the test on Glioma U373V (MGMT low) worked out at 70.7 µM; in the test with Glioma U373M (MGMT+) (168 h), 69.6 µM; in the test on Glioma U373M (MGMT+), 95 µM; in the test with Glioma SNB19M (MGMT+) (168 h), 41.2 µM; in the test on Glioma SNB19M (MGMT+), 49.7 µM.
On to `NC(=O)c1ncn2c(=O)n(Cc3ccco3)nnc12` [PX-004], for which the GI50 in test [4] (Homo sapiens, MRC5, 168 h) was 60.3 µM; in test [4], 55.5 µM; in [1], 53.4 µM; in [2] it was 27.2 µM; with Colon DLD1 it was 45.4 µM; in [5] (168 h) it was 50.1 µM. Moreover, the concentration for 50% growth inhibition (GI50) in test [5] is 52.5 µM; in test [3], 55.6 µM; in test [3] (Homo sapiens, HCT-116, 168 h) it was 70.9 µM.
For the compound `NC(=O)c1ncn2c(=O)n(CCc3ccccc3)nnc12` [DD-001, 4-oxo-3-phenethyl-3,4-dihydroimidazo[5,1-d][1,2,3,5]tetrazine-8-carboxamide], the GI50 was 424 µM in test [1]; 498 µM in test [2]; 385 µM with Colon DLD1; 302 µM in test [3] (Homo sapiens, HCT-116, 168 h); 77 µM in the test with Glioma SNB19V (MGMT−) (168 h); 128 µM and 91.1 µM in the test with Glioma SNB19V (MGMT−). The GI50 is 95 µM in the test with Glioma SNB19M (MGMT+) (168 h); 70.2 µM and 92.6 µM with Glioma SNB19M (MGMT+).
For the compound `COc1cc(Cn2nnc3c(C(N)=O)ncn3c2=O)cc(OC)c1OC` [AA-002, 4-Oxo-3-(3,4,5-trimethoxybenzyl)-3,4-dihydroimidazo[5,1-d][1,2,3,5]tetrazine-8-carboxamide], the GI50 is 293 µM in test [1]; 128 µM in test [2]; 393 µM in test [3] (Homo sapiens, HCT-116, 168 h).

These data come from patent US8450479B2, “3-substituted-4-oxo-3,4-dihydro-imidazo[5,1-d][1,2,3,5-tetrazine-8-carboxylic acid amides and their use” (Pharminox Limited, priority 2007, dated 2013).
